Experimental data taken from patent EP0230922A2, “Use of peptides in the preparation of agents for the treatment of coronary diseases or organic brain syndrome” (BOEHRINGER INGELHEIM KG, priority 1986, dated 1987).
Several values for one entry are separate records, joined by “and”; a condition that tells them apart may be missing. Equal entries are not always repeated.

Legend:
Mäuse (ChbI: NMRI) = assay: Hypoxia tolerance: survival of mice in a closed chamber (96,5 % N2, 3,5 % O2); type: in vivo; conditions: given 24 h, 16 h and 30 min before test, 10 mice per group
Source text: 1. HYPOXIE-TOLERANZ, d.h. bei der Prüfung der überlebensfähigkeit von Tieren in einer geschlossenen Kammer.
Eine aus Plexiglas hergestellte, durchsichtige, mit einem Deckel verschließbare Kammer (28 cm x 40 cm x 20 cm; Gesamtvolumen 22,4 1) ist in 2 Hälften geteilt, in die je 10 männliche oder weibliche Mäuse (ChbI: NMRI; 20-25 g Körpergewicht) gesetzt werden. Die Kammer wird mit einem Gasgemisch, bestehend aus 96,5 % N2 und 3,5 % 02 durchströmt; das Strömungsvolumen beträgt 12 1/min.
Eine der beiden Gruppen erhält Prüfsubstanzen, die andere das Vehikel (0,5 % Tylose), die 24 h, 16 h und 30 min vor dem Test oral appliziert werden. Etwa 6-7 min nach Beginn der Durchströmung der Kammer sterben die ersten Tiere. Das Experiment wird beendet, wenn in der Kontrollgruppe nur noch 2-3 Tiere Zeichen von Leben zeigen.
Ohne die Tiere zu berühren, wird 15 min gewartet und dann die Zahl der überlebenden Tiere in den beiden Hälften der Kammern endgültig festgestellt. Die statistische Signifikanz der Differenz der überlebenden Tiere in beiden Gruppen kann mit dem "Exakten Test von Fisher für 2 x 2 Feldertafeln" festgestellt werden.

Mäuse (ChbI:NMRI) = assay: Scopolamine test: passive avoidance in mice; type: in vivo; conditions: per os, scopolamine hydrobromide 0,6 mg/kg s.c., test 1 h after dosing
Source text: Durch den cholinerg-muskarinen Antagonisten Scopolamin wird bei Mensch und Tier eine vorübergehende Störung des übergangs von Inhalten des Kurzzeitgedächtnisses in das Langzeitgedächtnis hervorgerufen. Die auch klinisch bei gesunden Probanden durch Scopolamin auslösbaren, mnestischen Störungen sind in ihrer Ausprägung den psychopathologischen Veränderungen bei Patienten mit organischem Hirnsyndrom ähnlich (Drachman & Leavitt, 1974).
Der Scopolamin-Test wird an Gruppen von jeweils 10 männlichen, nicht nüchternen, naiven Mäusen (ChbI:NMRI: Körpergewicht 35 g) mit Hilfe einer passiven Vermeidereaktion durchgeführt. Das Testgerät besteht aus einer Skinner Box (30 cm x 26 cm x 29 cm) mit einem elektrifizierbaren Gitterboden und einer Plastikplattform (5 cm x 5 cm) an einer Seitenwand. Die Tiere werden einzeln in die Skinner Box gesetzt. Nach einer Orientierungsperiode von 30 sec werden kurze, unterbrochene Stromstöße von ca. 0,8 mA so oft an den Gitterboden der Box gelegt, bis das Tier gelernt hat, daß das Aufsuchen und Verweilen auf der Plastikplattform vor dem Stromstoß Sicherheit gewährt. Tiere, welche dies innerhalb von 120 sec nicht lernen, werden nicht weiter verwendet. Die anderen Mäuse werden unmittelbar nach Erlernen der passiven Vermeidereaktion in drei Gruppen (10 Tiere pro Gruppe) eingeteilt. Eine Gruppe erhält Scopolaminhydrobromid (0,6 mg/kg s.c.) und oral Vehikel (0,5 % Tylose); die zweite Gruppe Scopolaminhydrobromid sowie die zu testende Substanz per os in 0,5 % Tylose und die dritte Gruppe lediglich 0,5 % Tylose p.o.. Eine Stunde nach Applikation wird jedes Tier einzeln auf die Plattform gesetzt, um das Erinnerungsvermögen an die erlernte Vermeidereaktion zu prüfen. Das Kriterium besteht in der Bestimmung, ob die Maus während mindestens 60 sec auf der Plattform verbleibt (Ja-Antwort) oder nicht (Nein-Antwort).
Etwa 75 % der Tiere, welche ausschließlich mit 0,5 % Tylose behandelt wurden, verbleiben bei der abschließenden Prüfung länger als 60 sec auf der Plattform: ein Ergebnis, welches als Ausdruck des guten Erinnerungsvermögens an die erlernte Erfahrung gedeutet werden kann. Nach Gabe von Scopolamin und Tylose verbleiben durchschnittlich etwa 25 % der Tiere auf der Plattform; dies zeigt die erhebliche Beeinträchtigung des Erinnerungsvermögens nach Gabe von Scopolamin.

| Structure (SMILES) | Behandelte Tiere Überlebende % (Mäuse (ChbI: NMRI); 10 mg/kg p.o.) [%] | Behandelte Tiere Überlebende % (Mäuse (ChbI: NMRI); 30 mg/kg p.o.) [%] | %der Tiere bei welcher die Scopol-amin-Wirkung anta-gonisiert wurde (Mäuse (ChbI:NMRI); Dosis 5 (unit not given)) | %der Tiere bei welcher die Scopol-amin-Wirkung anta-gonisiert wurde (Mäuse (ChbI:NMRI); Dosis 10 (unit not given)) | %der Tiere bei welcher die Scopol-amin-Wirkung anta-gonisiert wurde (Mäuse (ChbI:NMRI); Dosis 20 (unit not given)) [%] | %der Tiere bei welcher die Scopol-amin-Wirkung anta-gonisiert wurde (Mäuse (ChbI:NMRI); Dosis 30 (unit not given)) [%] | %der Tiere bei welcher die Scopol-amin-Wirkung anta-gonisiert wurde (Mäuse (ChbI:NMRI); Dosis 1 (unit not given)) [%] | Behandelte Tiere Überlebende % (Mäuse (ChbI: NMRI); 50 mg/kg p.o.) | %der Tiere bei welcher die Scopol-amin-Wirkung anta-gonisiert wurde (Mäuse (ChbI:NMRI); Dosis 0,5 (unit not given)) [%] |
| --- | --- | --- | --- | --- | --- | --- | --- | --- | --- |
| C[C@H](NC(=O)[C@H](Cc1ccccc1)SCOC(=O)C(C)(C)C)C(=O)N1CCC[C@H]1C(=O)OCOC(=O)C(C)(C)C [Verbindung 1, N-[N-(3-Phenyl-2-S-pivaloyloxymethylmercapto-propanoyl)-S-alanyl]-S-prolin-pivaloyloxymethylester] | 100 | 80 | 80% and 40% | 40% and 30% | 40 | 40 |  |  |  |
| C[C@H](NC(=O)[C@H](Cc1ccccc1)SC(=O)c1ccccc1)C(=O)N1CCC[C@H]1C(=O)O [Verbindung 2, N-[N-(3-Phenyl-2-S-benzoylmercaptopropanoyl)-S-alanyl]-S-prolin] |  | 60 | 50% | 50% and 30% |  |  | 30 |  |  |
| CC(=O)S[C@@H](Cc1ccccc1)C(=O)N[C@@H](C)C(=O)N1CCC[C@H]1C(=O)OCOC(=O)C(C)(C)C [Verbindung 3, N-[N-(3-Phenyl-2-S-acetylmercaptopropanoyl)-S-alanyl]-S-prolin-pivaloyloxymethylester] | 50 | 30 | 40% | 40% and 80% |  |  | 60 | 80% and 100% | 40 |
| C[C@H](NC(=O)[C@@H](S)Cc1ccccc1)C(=O)N1CCC[C@H]1C(=O)OCOC(=O)C(C)(C)C [Verbindung 4, N-[N-(3-Phenyl-2-S-mercaptopropanoyl)-S-alanyl]-S-prolin-pivaloyloxymethylester] | 90 | 30 |  |  |  |  |  | 70% and 100% |  |
